Assay results taken from patent US20260176320A1, “MODULATORS OF G-PROTEIN COUPLED RECEPTORS” (priority 2018, published 2026).
Where two headings read alike, the source gives them in different places. Numbered stars: 1 amine (or outer) side, 2 acyl side, 3 side chain; on linkers, the order of the positions; unused ones are H or OH. Square brackets hold non-standard residues; d marks the D form. Side chains are listed from the residue outwards. Peptide text beside a SMILES is read from it. * marks the point of attachment. X8 = O=C([C@@H](Cc1nn[nH]n1)N[*:1])[*:2]; γGlu = O=C(O)[C@H](CCC(=O)[*:2])N[*:1]; Palmitoyl = CCCCCCCCCCCCCCCC(=O)*; X6 = O=C(CSCC(=O)*)NCCN1CCCCC1=O; Aib = CC(C)(N)C(=O)O

Tests used:
GIP-R = target: T1, GIP-R (Homo sapiens, UniProt P48546); experiment: HitHunter cAMP assay (GIP-R); assay type: cell-based; settings: cAMP; for Emax: read-out: (Emax) GIP-R
T1 sequence (P48546 22-466): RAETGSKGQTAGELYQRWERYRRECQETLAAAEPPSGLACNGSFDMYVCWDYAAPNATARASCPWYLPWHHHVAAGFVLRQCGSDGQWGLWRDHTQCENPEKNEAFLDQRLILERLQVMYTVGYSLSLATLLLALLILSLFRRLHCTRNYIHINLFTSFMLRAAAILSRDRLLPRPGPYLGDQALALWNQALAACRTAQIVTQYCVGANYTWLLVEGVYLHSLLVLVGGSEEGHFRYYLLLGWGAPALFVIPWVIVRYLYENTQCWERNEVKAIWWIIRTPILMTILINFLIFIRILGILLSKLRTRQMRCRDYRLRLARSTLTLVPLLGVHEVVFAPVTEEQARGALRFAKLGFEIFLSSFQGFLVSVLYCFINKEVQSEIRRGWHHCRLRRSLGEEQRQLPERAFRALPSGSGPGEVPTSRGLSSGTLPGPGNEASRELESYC
In short: (§1)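 cAMP accumulation read by luminescent HitHunter immunocompetition after 30 min room-temperature agonist stimulation. Agonists tested as 22-point twofold dilutions, in duplicate, on 10,000 cells/well in HBSS containing 625 μM IBMX, 10 mM HEPES and 0.2% BSA.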

GLP-1R = GLP-1R (Homo sapiens, UniProt P43220); experiment: HitHunter cAMP assay (GLP-1R); assay type: cell-based; settings: cAMP; for Emax: read-out: (Emax) GLP-1R
In short: as §1

[1] = Table 3A, read-out: EC50 GIP-R/nM
[2] = Table 3A, read-out: EC50 GLP-1R/nM

GLP-1R, sequence (P43220 24-463): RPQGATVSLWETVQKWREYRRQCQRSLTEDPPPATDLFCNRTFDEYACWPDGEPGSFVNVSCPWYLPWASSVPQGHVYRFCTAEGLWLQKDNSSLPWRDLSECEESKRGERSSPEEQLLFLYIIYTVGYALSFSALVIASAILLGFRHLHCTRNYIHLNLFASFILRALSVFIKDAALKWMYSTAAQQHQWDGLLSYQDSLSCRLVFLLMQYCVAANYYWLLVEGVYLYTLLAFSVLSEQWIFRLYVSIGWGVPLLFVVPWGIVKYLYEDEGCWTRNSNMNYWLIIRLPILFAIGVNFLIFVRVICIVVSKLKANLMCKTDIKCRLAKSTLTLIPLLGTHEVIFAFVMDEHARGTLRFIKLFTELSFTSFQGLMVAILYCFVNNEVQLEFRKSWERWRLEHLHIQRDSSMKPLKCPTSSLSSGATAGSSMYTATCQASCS

## CCCCCCCCCCCCCCCC(=O)N[C@@H](CCC(=O)NCCCC[C@H](NC(=O)[C@H](CO)NC(=O)[C@@H]1CCCN1C(=O)[C@@H]1CCCN1C(=O)[C@@H]1CCCN1C(=O)[C@H](C)NC(=O)CNC(=O)[C@H](CO)NC(=O)[C@H](CO)NC(=O)[C@@H]1CCCN1C(=O)CNC(=O)CNC(=O)[C@H](C)NC(=O)[C@H](CC(C)C)NC(=O)[C@H](CC(C)C)NC(=O)[C@H](Cc1c[nH]c2ccccc12)NC(=O)[C@H](CC(N)=O)NC(=O)[C@@H](NC(=O)[C@H](Cc1ccccc1)NC(=O)[C@H](CCC(=O)O)NC(=O)C(C)(C)NC(=O)[C@H](C)NC(=O)[C@H](C)NC(=O)[C@H](CCC(N)=O)NC(=O)[C@H](CCCCN)NC(=O)[C@H](CC(=O)O)NC(=O)[C@H](CC(C)C)NC(=O)[C@H](Cc1ccc(O)cc1)NC(=O)[C@@H](NC(=O)[C@H](CO)NC(=O)[C@H](Cc1ccc(O)cc1)NC(=O)[C@H](CC(=O)O)NC(=O)[C@H](CO)NC(=O)[C@@H](NC(=O)[C@H](Cc1ccccc1)NC(=O)[C@@H](NC(=O)CNC(=O)[C@H](CCC(=O)O)NC(=O)CSCC(=O)NCCN1C(=O)C[C@@H](C)C1=O)[C@@H](C)O)[C@@H](C)O)[C@@H](C)CC)C(C)C)C(N)=O)C(=O)O [Compound 89]
GIP-R; EC50 GIP-R/nM, Table 3
  EC50: 0.1 to 1 nM
GIP-R; EC50 GIP-R/nM, Table 3A
  EC50: 0.1 to 1 nM
GIP-R; Table 3
  Emax: 81%
GIP-R; Table 3A
  Emax: 81%
GLP-1R; EC50 GLP-1R/nM, Table 3
  EC50: 1 to 10 nM
GLP-1R; EC50 GLP-1R/nM, Table 3A
  EC50: 1 to 10 nM
GLP-1R; Table 3
  Emax: 108%
GLP-1R; Table 3A
  Emax: 108%

## CC[C@H](C)[C@H](NC(=O)[C@H](CO)NC(=O)[C@H](Cc1ccc(O)cc1)NC(=O)[C@H](CC(=O)O)NC(=O)[C@H](CO)NC(=O)[C@@H](NC(=O)[C@H](Cc1ccccc1)NC(=O)[C@@H](NC(=O)CNC(=O)[C@H](CCC(=O)O)NC(=O)CSCC(=O)NCCN1C(=O)CCc2cccnc21)[C@@H](C)O)[C@@H](C)O)C(=O)N[C@@H](Cc1ccc(O)cc1)C(=O)N[C@@H](CC(C)C)C(=O)N[C@@H](CC(=O)O)C(=O)N[C@@H](CCCCN)C(=O)N[C@@H](CCC(N)=O)C(=O)N[C@@H](C)C(=O)N[C@@H](C)C(=O)NC(C)(C)C(=O)N[C@@H](CCC(=O)O)C(=O)N[C@@H](Cc1ccccc1)C(=O)N[C@H](C(=O)N[C@@H](CC(N)=O)C(=O)N[C@@H](Cc1c[nH]c2ccccc12)C(=O)N[C@@H](CC(C)C)C(=O)N[C@@H](CC(C)C)C(=O)N[C@@H](C)C(=O)NCC(=O)NCC(=O)N1CCC[C@H]1C(=O)N[C@@H](CO)C(=O)N[C@@H](CO)C(=O)NCC(=O)N[C@@H](C)C(=O)N1CCC[C@H]1C(=O)N1CCC[C@H]1C(=O)N1CCC[C@H]1C(=O)N[C@@H](CO)C(=O)N[C@@H](CCCCN)C(N)=O)C(C)C [Compound 106]
GIP-R; EC50 GIP-R/nM, Table 3
  EC50: 10 to 100 nM
GIP-R; EC50 GIP-R/nM, Table 3A
  EC50: 10 to 100 nM
GIP-R; Table 3
  Emax: 37%
GIP-R; Table 3A
  Emax: 37%
GLP-1R; EC50 GLP-1R/nM, Table 3
  EC50: 10 to 100 nM
GLP-1R; EC50 GLP-1R/nM, Table 3A
  EC50: 10 to 100 nM
GLP-1R; Table 3
  Emax: 95%
GLP-1R; Table 3A
  Emax: 95%

## CCCCCCCCCCCCCCCC(=O)N[C@@H](CCC(=O)NCCCC[C@H](NC(=O)[C@H](CO)NC(=O)[C@@H]1CCCN1C(=O)[C@@H]1CCCN1C(=O)[C@@H]1CCCN1C(=O)[C@H](C)NC(=O)CNC(=O)[C@H](CO)NC(=O)[C@H](CO)NC(=O)[C@@H]1CCCN1C(=O)CNC(=O)CNC(=O)[C@H](C)NC(=O)[C@H](CC(C)C)NC(=O)[C@H](CC(C)C)NC(=O)[C@H](Cc1c[nH]c2ccccc12)NC(=O)[C@H](CC(N)=O)NC(=O)[C@@H](NC(=O)[C@H](Cc1ccccc1)NC(=O)[C@H](CCC(=O)O)NC(=O)C(C)(C)NC(=O)[C@H](C)NC(=O)[C@H](C)NC(=O)[C@H](CCC(N)=O)NC(=O)[C@H](CCCCN)NC(=O)[C@H](CC(=O)O)NC(=O)[C@H](CC(C)C)NC(=O)[C@H](Cc1ccc(O)cc1)NC(=O)[C@@H](NC(=O)[C@H](CO)NC(=O)[C@H](Cc1ccc(O)cc1)NC(=O)[C@H](CC(=O)O)NC(=O)[C@H](CO)NC(=O)[C@@H](NC(=O)[C@H](Cc1ccccc1)NC(=O)[C@@H](NC(=O)CNC(=O)[C@H](CCC(=O)O)NC(=O)CSCC(=O)NCCN1C[C@@H](C)CC1=O)[C@@H](C)O)[C@@H](C)O)[C@@H](C)CC)C(C)C)C(N)=O)C(=O)O (single isomer, unassigned) [Compound 64]
GIP-R; Table 3
  Emax: 35%
GIP-R; Table 3A
  Emax: 35%
GLP-1R; Table 3
  Emax: 97%
GLP-1R; Table 3A
  Emax: 97%

## CCCCCCCCCCCCCCCC(=O)N[C@@H](CCC(=O)NCCCC[C@H](NC(=O)[C@H](CO)NC(=O)[C@@H]1CCCN1C(=O)[C@@H]1CCCN1C(=O)[C@@H]1CCCN1C(=O)[C@H](C)NC(=O)CNC(=O)[C@H](CO)NC(=O)[C@H](CO)NC(=O)[C@@H]1CCCN1C(=O)CNC(=O)CNC(=O)[C@H](C)NC(=O)[C@H](CC(C)C)NC(=O)[C@H](CC(C)C)NC(=O)[C@H](Cc1c[nH]c2ccccc12)NC(=O)[C@H](CC(N)=O)NC(=O)[C@@H](NC(=O)[C@H](Cc1ccccc1)NC(=O)[C@H](CCC(=O)O)NC(=O)C(C)(C)NC(=O)[C@H](C)NC(=O)[C@H](C)NC(=O)[C@H](CCC(N)=O)NC(=O)[C@H](CCCCN)NC(=O)[C@H](CC(=O)O)NC(=O)[C@H](CC(C)C)NC(=O)[C@H](Cc1ccc(O)cc1)NC(=O)[C@@H](NC(=O)[C@H](CO)NC(=O)[C@H](Cc1ccc(O)cc1)NC(=O)[C@H](CC(=O)O)NC(=O)[C@H](CO)NC(=O)[C@@H](NC(=O)[C@H](Cc1ccccc1)NC(=O)[C@@H](NC(=O)CNC(=O)[C@@H](Cc1nn[nH]n1)NC(=O)CSCC(=O)NCCN1CCCCC1=O)[C@@H](C)O)[C@@H](C)O)[C@@H](C)CC)C(C)C)C(N)=O)C(=O)O [Compound 224] (X6-[X8]GTFTSDYSIYLDKQAA[Aib]EFVNWLLAGGPSSGAPPPSK([γGlu-Palmitoyl])-NH2)
GIP-R; Table 3A
  Emax: 76%
GIP-R; [1]
  EC50: 10 to 100 nM
GLP-1R; Table 3A
  Emax: 98%
GLP-1R; [2]
  EC50: 0.1 to 1 nM

## CCCCCCCCCCCCCCCC(=O)N[C@@H](CCC(=O)NCCCC[C@H](NC(=O)[C@H](CO)NC(=O)[C@@H]1CCCN1C(=O)[C@@H]1CCCN1C(=O)[C@@H]1CCCN1C(=O)[C@H](C)NC(=O)CNC(=O)[C@H](CO)NC(=O)[C@H](CO)NC(=O)[C@@H]1CCCN1C(=O)CNC(=O)CNC(=O)[C@H](C)NC(=O)[C@H](CC(C)C)NC(=O)[C@H](CC(C)C)NC(=O)[C@H](Cc1c[nH]c2ccccc12)NC(=O)[C@H](CC(N)=O)NC(=O)[C@@H](NC(=O)[C@H](Cc1ccccc1)NC(=O)[C@H](CCC(=O)O)NC(=O)C(C)(C)NC(=O)[C@H](C)NC(=O)[C@H](C)NC(=O)[C@H](CCC(N)=O)NC(=O)[C@H](CCCCN)NC(=O)[C@H](CC(=O)O)NC(=O)[C@H](CC(C)C)NC(=O)[C@H](Cc1ccc(O)cc1)NC(=O)[C@@H](NC(=O)[C@H](CO)NC(=O)[C@H](Cc1ccc(O)cc1)NC(=O)[C@H](CC(=O)O)NC(=O)[C@H](CO)NC(=O)[C@@H](NC(=O)[C@H](Cc1ccccc1)NC(=O)[C@@H](NC(=O)CNC(=O)[C@H](CCC(=O)O)NC(=O)CSCC(=O)NCCN1C(=O)CNC1=O)[C@@H](C)O)[C@@H](C)O)[C@@H](C)CC)C(C)C)C(N)=O)C(=O)O [Compound 84]
GIP-R; Table 3
  Emax: 53%
GIP-R; Table 3, read-out: EC50 GIP-R/nM
  EC50: 1 to 10 nM
GIP-R; Table 3A
  Emax: 53%
GIP-R; [1]
  EC50: 1 to 10 nM
GLP-1R; Table 3
  Emax: 107%
GLP-1R; Table 3, read-out: EC50 GLP-1R/nM
  EC50: 0.1 to 1 nM
GLP-1R; Table 3A
  Emax: 107%
GLP-1R; [2]
  EC50: 0.1 to 1 nM

## CC[C@H](C)[C@H](NC(=O)[C@H](CO)NC(=O)[C@H](Cc1ccc(O)cc1)NC(=O)[C@H](CC(=O)O)NC(=O)[C@H](CO)NC(=O)[C@@H](NC(=O)[C@H](Cc1ccccc1)NC(=O)[C@@H](NC(=O)CNC(=O)[C@H](CCC(=O)O)NC(=O)C(C)(C)C(=O)NCCN1C(=O)c2ccc(C)cc2C1=O)[C@@H](C)O)[C@@H](C)O)C(=O)N[C@@H](Cc1ccc(O)cc1)C(=O)N[C@@H](CC(C)C)C(=O)N[C@@H](CC(=O)O)C(=O)N[C@@H](CCCCN)C(=O)N[C@@H](CCC(N)=O)C(=O)N[C@@H](C)C(=O)N[C@@H](C)C(=O)NC(C)(C)C(=O)N[C@@H](CCC(=O)O)C(=O)N[C@@H](Cc1ccccc1)C(=O)N[C@H](C(=O)N[C@@H](CC(N)=O)C(=O)N[C@@H](Cc1c[nH]c2ccccc12)C(=O)N[C@@H](CC(C)C)C(=O)N[C@@H](CC(C)C)C(=O)N[C@@H](C)C(=O)NCC(=O)NCC(=O)N1CCC[C@H]1C(=O)N[C@@H](CO)C(=O)N[C@@H](CO)C(=O)NCC(=O)N[C@@H](C)C(=O)N1CCC[C@H]1C(=O)N1CCC[C@H]1C(=O)N1CCC[C@H]1C(=O)N[C@@H](CO)C(=O)N[C@@H](CCCCN)C(N)=O)C(C)C [Compound 127]
GIP-R; EC50 GIP-R/nM, Table 3
  EC50: 1 to 10 nM
GIP-R; EC50 GIP-R/nM, Table 3A
  EC50: 1 to 10 nM
GIP-R; Table 3
  Emax: 98 to 102%
GIP-R; Table 3A
  Emax: 98 to 102%
GLP-1R; EC50 GLP-1R/nM, Table 3
  EC50: 1 to 10 nM
GLP-1R; EC50 GLP-1R/nM, Table 3A
  EC50: 1 to 10 nM
GLP-1R; Table 3
  Emax: 95 to 107%
GLP-1R; Table 3A
  Emax: 95 to 107%
